What was measured:
[1] = target: T1, G-protein coupled receptor 6 (Homo sapiens, UniProt P46095); experiment: Modulation activity at GPR6 receptor (unknown origin) expressed in CHO-K1 cells assessed as inhibition of constitutive cAMP activity incubated for 45 mins by Perkin Elmer Lance HTRF Ultrac-AMP assay; type: functional, cell-based
[2] = target: T1, G-protein coupled receptor 6; experiment: Modulation activity at GPR6 receptor (unknown origin) expressed in CHO-K1 cells assessed as inhibition of constitutive cAMP activity incubated for 45 mins in presence of 300 uM IBMX by Perkin Elmer Lance HTRF Ultrac-AMP assay; type: functional, cell-based

T1 sequence (P46095 whole entry): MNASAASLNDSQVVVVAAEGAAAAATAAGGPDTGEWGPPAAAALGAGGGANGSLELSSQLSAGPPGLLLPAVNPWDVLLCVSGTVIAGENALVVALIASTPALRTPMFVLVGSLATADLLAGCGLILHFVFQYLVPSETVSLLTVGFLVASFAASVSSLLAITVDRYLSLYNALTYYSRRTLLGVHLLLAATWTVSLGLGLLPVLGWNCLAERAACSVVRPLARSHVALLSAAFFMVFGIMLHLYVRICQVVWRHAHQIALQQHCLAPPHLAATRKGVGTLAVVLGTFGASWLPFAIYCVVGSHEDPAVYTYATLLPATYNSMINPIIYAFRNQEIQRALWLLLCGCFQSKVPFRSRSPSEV

IC50 ([2]; cho-k1)	Compound	other results
	CN1CCc2nc(NC3CC3)c(N3CCC([C@@H](F)c4ccc(F)cc4F)CC3)nc2C1	IC50 [1]: 26.5 nM
90.1 nM	CC(C)Nc1nc2c(nc1N1CCC(Oc3ccc(F)cc3F)CC1)CCN(C)C2	
179 nM	CC(C)Nc1nc2c(nc1N1CCC(Oc3ccc(F)cc3F)CC1)C(C)N(C(=O)N(C)C)CC2 (centres undefined)	
129 nM	CC(C)Nc1nc2c(nc1N1CCC(Oc3ccc(F)cc3F)CC1)CCN(C(=O)C(F)F)C2	
212 nM	CC1c2nc(NCC(F)F)c(N3CCC(Oc4ccc(F)cc4F)CC3)nc2CCN1C(=O)C(F)F (centres undefined)	
	COCCNC(=O)N1CCc2nc(N3CCC(Oc4ccc(F)cc4F)CC3)c(NC(C)C)nc2C1	IC50 [1]: 29.8 nM
59.5 nM	CC(C)Nc1nc2c(nc1N1CCC(Oc3ccc(F)cc3F)CC1)CN(C)CC2	
71.5 nM	COCC(=O)N1CCc2nc(N3CCC(Oc4ccc(F)cc4F)CC3)c(NC(C)C)nc2C1	
35.9 nM	CC(=O)N1CCc2nc(N3CCC(Oc4ccc(F)cc4F)CC3)c(NC3CC(F)(F)C3)nc2C1	
111 nM	O=C(C(F)F)N1CCc2nc(NCC(F)F)c(N3CCC(Oc4ccc(F)cc4F)CC3)nc2C1	
55 nM	CC(=O)N1CCc2nc(N3CCC(Oc4ccc(F)cc4F)CC3)c(NC3CCC3)nc2C1	
	CC1Cc2nc(NCC(F)F)c(N3CCC(Oc4ccc(F)cc4F)CC3)nc2CN1C(=O)N(C)C (centres undefined)	IC50 [1]: 31.4 nM
95.6 nM	CC(C)Nc1nc2c(nc1N1CCC(Oc3ccc(F)cc3F)CC1)CN(S(C)(=O)=O)CC2	
	CO[C@@H](C)C(=O)N1Cc2nc(N3CCC(Oc4ccc(F)cc4F)CC3)c(NCC(F)F)nc2CC1C (some centres undefined)	IC50 [1]: 20.9 nM
114 nM	CC(=O)O[C@H]1C[C@@H](Nc2nc3c(nc2N2CCC(Oc4ccc(F)cc4F)CC2)CCN(C(C)=O)C3)C1	
	CC(C)Nc1nc2c(nc1N1CCC(C(F)c3ccc(F)cc3F)CC1)CN(C(=O)N(C)C)CC2 (centres undefined)	IC50 [1]: 23.7 nM
	CC(=O)N1CCc2nc(NC(C)C)c(N3CCC(Oc4ccc(F)cc4F)CC3)nc2C1C (centres undefined)	IC50 [1]: 88 nM
59.3 nM	CC(C)Nc1nc2c(nc1N1CCC(Oc3ccc(F)cc3F)CC1)CCN(S(C)(=O)=O)C2C (centres undefined)	
	COc1ccc(OC2CCN(c3nc4c(nc3NC3CC3)CCN(C)C4)CC2)c(F)c1	IC50 [1]: 145 nM
74.8 nM	CC(C)Nc1nc2c(nc1N1CCC(Oc3ccc(F)cc3F)CC1)CCN(CCF)C2	
62 nM	CC[C@H](C)Nc1nc2c(nc1N1CCC(Oc3ccc(F)cc3F)CC1)CCN(C(C)=O)C2	
363 nM	CC(=O)N1CCc2nc(N3CCN(Cc4ccc(C#N)cc4F)CC3)c(NC(C)C)nc2C1	
95 nM	CC(C)Nc1nc2c(nc1N1CCC(Oc3ccc(F)cc3F)CC1)CCN(C(=O)C(F)F)C2C (centres undefined)	

IC50 ([2]; cho-k1)	Compound	other results
220 nM	CC(=O)O[C@H]1C[C@@H](Nc2nc3c(nc2N2CCN(Cc4ccc(F)cc4F)CC2)CCN(C(C)=O)C3)C1	
342 nM	COc1cccc(S(=O)(=O)C2CCN(c3nc4c(nc3NC(C)C)CCN(C(C)=O)C4)CC2)c1	
	CN1CCc2nc(NC3CC3)c(N3CCC([C@H](F)c4ccc(F)cc4F)CC3)nc2C1	IC50 [1]: 15.2 nM
	CC1c2nc(NCC(F)F)c(N3CCC(Oc4ccc(F)cc4F)CC3)nc2CCN1C(=O)C1CC1 (centres undefined)	IC50 [1]: 85 nM
61.8 nM	CC(C)Nc1nc2c(nc1N1CCC(Oc3ccc(F)cc3F)CC1)CCN(S(C)(=O)=O)C2	
59.1 nM	CCC(=O)N1CCc2nc(N3CCN(Cc4ccc(F)cc4F)CC3)c(N[C@H]3CCOC3)nc2C1	
	CC1Cc2nc(NCC(F)F)c(N3CCC(Oc4ccc(F)cc4F)CC3)nc2CN1S(C)(=O)=O (centres undefined)	IC50 [1]: 10.4 nM
78.1 nM	CC(C)Nc1nc2c(nc1N1CCC(Oc3ccc(F)cc3F)CC1)CCN(C(=O)[C@@H]1CCCN1C)C2	
93.5 nM	CC1c2nc(N3CCC(Oc4ccc(F)cc4F)CC3)c(NCC(F)F)nc2CCN1C(=O)N(C)C (centres undefined)	
23.6 nM	CC(C)Nc1nc2c(nc1N1CCC([C@@H](F)c3ccc(F)cc3F)CC1)CCN(C=O)C2	
	COC[C@H](C)Nc1nc2c(nc1N1CCC(Oc3ccc(F)cc3F)CC1)CCN(C(C)=O)C2	IC50 [2]: 107 nM
	CC(C)Nc1nc2c(nc1N1CCC(C(=O)c3cc(Cl)ccc3F)CC1)CN(C)CC2	IC50 [1]: 8.8 nM
43.2 nM	CC(C)Nc1nc2c(nc1N1CCC(Oc3ccc(F)cc3F)CC1)CN(C=O)CC2	
	COc1ccc(OC2CCN(c3nc4c(nc3NC3CCC3)CN(C(=O)N(C)C)CC4)CC2)c(F)c1	IC50 [1]: 32.5 nM
	CC(=O)N1CCc2nc(N3CCC(Oc4ccc(F)cc4F)CC3)c(NCC(F)F)nc2C1C (centres undefined)	IC50 [1]: 178 nM
	CC(C)Nc1nc2c(nc1N1CCC(Oc3ccc(F)cc3F)CC1)C(C)N(C(=O)C1CC1)CC2 (centres undefined)	IC50 [1]: 259 nM
	CO[C@@H](C)C(=O)N1CCc2nc(NCC(F)F)c(N3CCC(Oc4ccc(F)cc4F)CC3)nc2C1	IC50 [1]: 8.3 nM
	CC(C)Nc1nc2c(nc1N1CCC(Oc3ccc(F)cc3F)CC1)CCN(C(=O)N1CCCC1)C2	IC50 [1]: 391 nM
110 nM	CC(C)Nc1nc2c(nc1N1CCC(Oc3ccc(F)cc3F)CC1)CCN(C(=O)N(C)C)C2C (centres undefined)	
	CO[C@H](C)C(=O)N1CCc2nc(N3CCC(Oc4ccc(F)cc4F)CC3)c(NCC(F)F)nc2C1	IC50 [1]: 64 nM
122 nM	CC(=O)N1CCc2nc(N3CCN(Cc4ccc(F)cc4F)CC3)c(N[C@H]3C[C@@H](O)C3)nc2C1	
	COC[C@@H](C)Nc1nc2c(nc1N1CCC(Oc3ccc(F)cc3F)CC1)CCN(C(C)=O)C2	IC50 [2]: > 1000 nM
	COc1ccc(OC2CCN(c3nc4c(nc3NC(C)C)CN(C(=O)N(C)C)CC4)CC2)c(F)c1	IC50 [1]: 35 nM

IC50 ([2]; cho-k1)	Compound	other results
69.2 nM	CC(C)Nc1nc2c(nc1N1CCC(Oc3ccc(F)cc3F)CC1)CN(CCF)CC2	
	CC(C)Nc1nc2c(nc1N1CCC(Oc3ccc(F)cc3F)CC1)CCN(S(=O)(=O)C(C)C)C2	IC50 [1]: 149 nM
163 nM	CS(=O)(=O)N1CCc2nc(NCC(F)F)c(N3CCC(Oc4ccc(F)cc4F)CC3)nc2C1	
	CC(C)Nc1nc2c(nc1N1CCC(Oc3ccc(F)cc3F)CC1)CCN(C(=O)N1CCOCC1)C2	IC50 [1]: 62.6 nM
140 nM	COc1ccc(OC2CCN(c3nc4c(nc3NC(C)C)CN(C)CC4)CC2)c(F)c1	
200 nM	COc1ccc(S(=O)(=O)C2CCN(c3nc4c(nc3NC(C)C)CCN(C(C)=O)C4)CC2)c(F)c1	
27.4 nM	CC(=O)N1CCc2nc(N3CCC([C@H](F)c4ccc(F)cc4F)CC3)c(NC(C)C)nc2C1	
	COCC(=O)N1CCc2nc(NC(C)C)c(N3CCC(Oc4ccc(F)cc4F)CC3)nc2C1C (centres undefined)	IC50 [1]: 91 nM
132 nM	COC(=O)N1CCc2nc(NC(C)C)c(N3CCC(Oc4ccc(F)cc4F)CC3)nc2C1	
74.1 nM	COc1ccc(OC2CCN(c3nc4c(nc3NC(C)C)CN(C(C)=O)CC4)CC2)c(F)c1	
97.8 nM	CC(=O)N1CCc2nc(N3CCN(Cc4ccc(F)cc4F)CC3)c(N[C@H]3CCOC3)nc2C1	
30.3 nM	CC(C)Nc1nc2c(nc1N1CCC(C(F)c3ccc(F)cc3F)CC1)CCN(C)C2 (centres undefined)	
27.6 nM	CCC(=O)N1CCc2nc(N3CCC(Oc4ccc(F)cc4F)CC3)c(NC(C)C)nc2C1	
49.3 nM	CS(=O)(=O)N1CCc2nc(N3CCC(Oc4ccc(F)cc4F)CC3)c(NC3CCC3)nc2C1	
30.9 nM	CCC(=O)N1CCc2nc(N3CCN(Cc4ccc(F)cc4F)CC3)c(NC(C)C)nc2C1	
62.5 nM	COc1ccc(OC2CCN(c3nc4c(nc3NC(C)C)CCN(C(C)=O)C4)CC2)c(F)c1	
247 nM	CC(=O)N1CCc2nc(NC(C)C)c(N3CCC(S(=O)(=O)c4ccccc4F)CC3)nc2C1	
49.7 nM	CC(=O)N1CCc2nc(N3CCC(Oc4ccc(F)cc4F)CC3)c(NCC(F)F)nc2C1	
27 nM	CC(=O)N1CCc2nc(N3CCN(Cc4ccc(F)cc4F)CC3)c(NC(C)C)nc2C1	
186 nM	CC(=O)N1CCc2nc(N3CCN(Cc4ccc(F)cc4F)CC3)c(N[C@H]3C[C@H](F)C3)nc2C1	
73.2 nM	CC(=O)N1CCc2nc(N3CCC(Oc4ccc(F)cc4F)CC3)c(NC(C)C)nc2C1C (centres undefined)	
319 nM	CC[C@@H](C)Nc1nc2c(nc1N1CCC(Oc3ccc(F)cc3F)CC1)CCN(C(C)=O)C2	
188 nM	CC(=O)N1CCc2nc(NC(C)C)c(N3CCC(S(=O)(=O)c4ccc(F)cc4)CC3)nc2C1	

IC50 ([2]; cho-k1)	Compound	other results
27.9 nM	CC(C)Nc1nc2c(nc1N1CCN(Cc3ccc(F)cc3F)CC1)CCN(S(C)(=O)=O)C2	
250 nM	CC(=O)N1CCc2nc(NC(C)C)c(N3CCC(S(=O)(=O)c4cccc(F)c4)CC3)nc2C1	
200 nM	CC(C)Nc1nc2c(nc1N1CCC(Oc3ccc(F)cc3F)CC1)CN(CC(F)F)CC2	
61.5 nM	CC(=O)N1CCc2nc(N3CCC(Oc4ccc(F)cc4F)CC3)c(N[C@H]3C[C@@H](O)C3)nc2C1	
79.5 nM	COCC(=O)N1CCc2nc(NCC(F)F)c(N3CCC(Oc4ccc(F)cc4F)CC3)nc2C1	
37.8 nM	CC(=O)N1CCc2nc(N3CCC([C@@H](F)c4ccc(F)cc4F)CC3)c(NC(C)C)nc2C1	
39.2 nM	CCC(=O)N1CCc2nc(N3CCC(Oc4ccc(F)cc4F)CC3)c(N[C@H]3CCOC3)nc2C1	
	[2H]C([2H])([2H])C(=O)N1CCc2nc(N3CCC(Oc4ccc(F)cc4F)CC3)c(NC(C)C)nc2C1	IC50 [2]: 33.7 nM
11.4 nM	CC(C)Nc1nc2c(nc1N1CCC([C@H](F)c3ccc(F)cc3F)CC1)CCN(C=O)C2	
63.2 nM	CC(=O)N1CCc2nc(N3CCN(Cc4ccc(F)cc4F)CC3)c(N[C@@H]3CCOC3)nc2C1	
130 nM	COC(=O)N1CCc2nc(N3CCC(Oc4ccc(F)cc4F)CC3)c(NC(C)C)nc2C1	
29 nM	CC(C)Nc1nc2c(nc1N1CCN(Cc3ccc(F)cc3F)CC1)CCN(C(=O)C(C)C)C2	
78 nM	CC(=O)N1CCc2nc(N3CCC(Oc4ccc(F)cc4F)CC3)c(N[C@H]3C[C@H](O)C3)nc2C1	
116 nM	CC(C)Nc1nc2c(nc1N1CCC(Oc3ccc(F)cc3F)CC1)C(C)N(C(=O)C(F)F)CC2 (centres undefined)	
340 nM	CC(C)Nc1nc2c(nc1N1CCC(Oc3ccc(F)cc3F)CC1)CCN(C(=O)C1CC1)C2	
17.1 nM	CC(C)Nc1nc2c(nc1N1CCC(C(F)c3ccc(F)cc3F)CC1)CN(C)CC2 (centres undefined)	
211 nM	CC(C)Nc1nc2c(nc1N1CCC(Oc3ccc(F)cc3F)CC1)CN(C(=O)C1CC1)CC2	
43.7 nM	CC(=O)N1CCc2nc(N3CCN(Cc4ccc(F)cc4F)CC3)c(NC3CCC3)nc2C1	
604 nM	CC(=O)O[C@H]1C[C@H](Nc2nc3c(nc2N2CCC(Oc4ccc(F)cc4F)CC2)CCN(C(C)=O)C3)C1	
193 nM	CC1c2nc(N3CCC(Oc4ccc(F)cc4F)CC3)c(NCC(F)F)nc2CCN1C(=O)C(F)F (centres undefined)	
